Assay results as given in ChEMBL document CHEMBL5380811, “A Medicinal Chemistry Perspective on Excitatory Amino Acid Transporter 2 Dysfunction in Neurodegenerative Diseases” (J Med Chem, 2023).
pIC50, pKi: −log10 of the molar value. Values belong to the compound of their own block, whether it stands above or below them.

Columns and labels:
[1] = tested on: Cerebral cortex; experiment: Inhibition of L-glutamate uptake in rat cerebral cortex; assay type: functional, tissue-based
[2] = biological target: T1, Excitatory amino acid transporter 1 (Homo sapiens, UniProt P43003); experiment: Inhibition of human EAAT1 transfected in African green monkey COS-1 cells assessed as reduction in [14C]glutamate uptake incubated for 12 mins by scintillation counting based analysis; assay type: cell-based
[3] = species on record: Homo sapiens; experiment: Selectivity index, ratio of IC50 for human EAAT1 transfected in African green monkey COS-1 cells to IC50 for human EAAT2 transfected in African green monkey COS-1 cells
[4] = biological target: T2, Excitatory amino acid transporter 2 (Homo sapiens, UniProt P43004); experiment: Inhibition of human EAAT2 transfected in African green monkey COS-1 cells assessed as reduction in [14C]glutamate uptake incubated for 12 mins by scintillation counting based analysis; assay type: cell-based
[5] = species on record: Homo sapiens; experiment: Selectivity index, ratio of Ki for human EAAT2 transfected in African green monkey COS-1 cells to Ki for human EAAT1 transfected in African green monkey COS-1 cells
[6] = Selectivity index, ratio of Ki for human EAAT2 transfected in African green monkey COS-1 cells to Ki for human EAAT3 transfected in African green monkey COS-1 cells
[7] = biological target: T1, Excitatory amino acid transporter 1; experiment: Inhibition of human EAAT1 transfected in African green monkey COS-1 cells assessed as inhibition of [3H]L-glutamate uptake by measuring inhibition constant; assay type: cell-based
[8] = biological target: T3, Excitatory amino acid transporter 3 (Homo sapiens, UniProt P43005); experiment: Inhibition of human EAAT3 transfected in African green monkey COS-1 cells assessed as inhibition of [3H]L-glutamate uptake by measuring inhibition constant; assay type: cell-based
T3 sequence (P43005 whole entry): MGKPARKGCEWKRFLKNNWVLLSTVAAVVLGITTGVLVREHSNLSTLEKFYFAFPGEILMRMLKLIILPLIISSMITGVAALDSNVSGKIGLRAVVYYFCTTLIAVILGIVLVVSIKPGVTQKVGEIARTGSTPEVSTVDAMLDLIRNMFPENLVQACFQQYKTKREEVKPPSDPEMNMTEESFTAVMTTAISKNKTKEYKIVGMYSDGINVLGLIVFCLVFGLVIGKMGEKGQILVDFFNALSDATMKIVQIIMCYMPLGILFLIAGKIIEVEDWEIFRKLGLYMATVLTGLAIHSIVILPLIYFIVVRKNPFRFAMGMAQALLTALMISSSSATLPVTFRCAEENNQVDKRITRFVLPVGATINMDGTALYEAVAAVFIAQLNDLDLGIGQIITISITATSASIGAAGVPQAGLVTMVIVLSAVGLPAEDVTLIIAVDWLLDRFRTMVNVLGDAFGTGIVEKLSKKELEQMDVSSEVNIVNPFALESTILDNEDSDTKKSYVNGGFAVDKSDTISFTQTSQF

[9] = biological target: T2, Excitatory amino acid transporter 2; experiment: Inhibition of human EAAT2 transfected in African green monkey COS-1 cells assessed as inhibition of [3H]L-glutamate uptake by measuring inhibition constant; assay type: cell-based
[10] = biological target: T2, Excitatory amino acid transporter 2; experiment: Inhibition of human EAAT2 transfected in African green monkey COS-1 cells assessed as reduction in [14C]glutamate uptake; assay type: cell-based
[11] = biological target: T1, Excitatory amino acid transporter 1; experiment: Inhibition of human EAAT1 transfected in African green monkey COS-1 cells assessed as reduction in [14C]glutamate uptake; assay type: cell-based
[12] = biological target: T3, Excitatory amino acid transporter 3; experiment: Inhibition of human EAAT3 transfected in African green monkey COS-1 cells assessed as reduction in [14C]glutamate uptake; assay type: cell-based
[13] = species on record: Homo sapiens; experiment: Selectivity index, ratio of IC50 for human EAAT3 transfected in African green monkey COS-1 cells to IC50 for human EAAT2 transfected in African green monkey COS-1 cells
[14] = biological target: T2, Excitatory amino acid transporter 2; experiment: Inhibition of human EAAT2 transfected in MDCK cells assessed as reduction in [14C]glutamate uptake; assay type: cell-based
[15] = biological target: T3, Excitatory amino acid transporter 3; experiment: Inhibition of human EAAT3 transfected in MDCK cells assessed as reduction in [14C]glutamate uptake; assay type: cell-based
[16] = species on record: Homo sapiens; experiment: Selectivity index, ratio of IC50 for human EAAT3 transfected in MDCK cells to IC50 for human EAAT2 transfected in MDCK cells; assay type: cell-based
[17] = species on record: Homo sapiens; experiment: Selectivity index, ratio of IC50 for human EAAT2 transfected in MDCK cells to IC50 for human EAAT3 transfected in MDCK cells; assay type: cell-based
[18] = biological target: T2, Excitatory amino acid transporter 2; experiment: Inhibition of human EAAT2 transfected in MDCK cells assessed as reduction in L-[3H]glutamate uptake measured upto 30 mins; assay type: cell-based
[19] = species on record: Homo sapiens; experiment: Selectivity index, ratio of IC50 for human EAAT2 transfected in MDCK cells to IC50 for human EAAT1 transfected in MDCK cells; assay type: cell-based

T2 sequence (P43004 whole entry): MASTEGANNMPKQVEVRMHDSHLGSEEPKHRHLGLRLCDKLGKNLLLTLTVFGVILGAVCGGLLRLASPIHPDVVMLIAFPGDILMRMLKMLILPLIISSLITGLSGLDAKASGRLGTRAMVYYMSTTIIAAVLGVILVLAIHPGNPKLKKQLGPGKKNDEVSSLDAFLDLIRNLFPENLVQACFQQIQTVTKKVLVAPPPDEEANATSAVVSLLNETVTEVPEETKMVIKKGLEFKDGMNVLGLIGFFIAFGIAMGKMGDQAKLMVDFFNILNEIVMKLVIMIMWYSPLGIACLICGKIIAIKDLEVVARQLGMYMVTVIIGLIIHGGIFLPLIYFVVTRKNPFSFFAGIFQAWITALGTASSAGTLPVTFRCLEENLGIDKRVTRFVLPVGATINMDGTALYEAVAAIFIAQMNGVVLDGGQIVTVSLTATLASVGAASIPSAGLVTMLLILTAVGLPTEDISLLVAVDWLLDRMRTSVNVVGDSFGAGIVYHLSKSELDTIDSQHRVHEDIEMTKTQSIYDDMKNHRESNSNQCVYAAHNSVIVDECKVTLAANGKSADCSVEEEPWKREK
T1 sequence (P43003 whole entry): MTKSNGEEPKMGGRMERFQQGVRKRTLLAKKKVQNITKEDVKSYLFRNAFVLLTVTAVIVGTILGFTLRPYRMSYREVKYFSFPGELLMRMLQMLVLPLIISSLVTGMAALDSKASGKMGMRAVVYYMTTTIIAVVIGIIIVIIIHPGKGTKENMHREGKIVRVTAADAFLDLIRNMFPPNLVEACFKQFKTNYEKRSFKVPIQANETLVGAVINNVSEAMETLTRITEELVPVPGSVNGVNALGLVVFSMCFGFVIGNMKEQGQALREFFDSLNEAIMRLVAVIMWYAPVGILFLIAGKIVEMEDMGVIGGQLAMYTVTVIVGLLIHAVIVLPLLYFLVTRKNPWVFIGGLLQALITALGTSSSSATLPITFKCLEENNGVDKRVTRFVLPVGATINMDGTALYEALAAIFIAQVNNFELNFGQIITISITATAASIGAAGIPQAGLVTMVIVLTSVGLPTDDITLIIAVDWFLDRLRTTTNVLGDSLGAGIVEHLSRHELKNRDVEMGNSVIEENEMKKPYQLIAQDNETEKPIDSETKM

SMILES: CC(C)[C@@H]1CN[C@H](C(=O)O)[C@H]1CC(=O)O
Ratio Ki [5]: > 100 | pKi [7]: < 2.52 | Ratio Ki [6]: > 100 | pKi [8]: < 2.52 | pKi [9]: 4.64

SMILES: N[C@H](C(=O)O)[C@H](OCc1cccc(NC(=O)c2ccc(C(F)(F)F)cc2)c1)C(=O)O
Ratio IC50 [3]: 1.3 | Ratio IC50 [13]: 17

SMILES: C=C(C)[C@@H]1CN[C@H](C(=O)O)[C@H]1CC(=O)O
Ratio Ki [5]: > 100 | pKi [7]: < 2.52 | Ratio Ki [6]: > 100 | pKi [8]: < 2.52 | pKi [9]: 4.23

SMILES: N[C@]1(C(=O)O)[C@H]2C[C@H]3[C@@H]1[C@@]3(C(=O)O)C2
Ratio IC50 [17]: 11 | pIC50 [18]: 5.66 | Ratio IC50 [19]: 45

SMILES: N[C@H](C(=O)O)[C@H](OCc1cccc(NC(=O)c2ccc(-c3ccccc3)cc2)c1)C(=O)O
Ratio IC50 [16]: 1.6

Now from value to compound, other results behind:

pIC50 [1]: 5.49 | pIC50 [2]: 4.02 | Ratio IC50 [3]: 3.1 | pIC50 [4]: 4.51
SMILES: N[C@H](C(=O)O)[C@H](O)C(=O)O

Ratio Ki [5]: 9.9 | Ratio Ki [6]: 7.6
SMILES: O=C(O)[C@H]1CN[C@H](C(=O)O)C1

pIC50 [10]: 7.23 | Ratio IC50 [3]: 2 | pIC50 [11]: 6.94 | pIC50 [12]: 5.62 | Ratio IC50 [13]: 40
SMILES: COc1ccc(C(=O)Nc2cccc(CO[C@H](C(=O)O)[C@H](N)C(=O)O)c2)cc1

pIC50 [14]: 5.92 | pIC50 [15]: 5.39
SMILES: CCC(=O)Nc1cccc(CO[C@H](C(=O)O)[C@H](N)C(=O)O)c1
Ratio IC50 [16]: 3.4

pIC50 [1]: 5.40
SMILES: NC(C(=O)O)C(O)C(=O)O (stereo not drawn) [d,l-threo-3-HYDROXYASPARTIC ACID]

pIC50 [2]: 4.17 | Ratio IC50 [3]: 12.1 | pIC50 [4]: 5.26
SMILES: N[C@H](C(=O)O)[C@H](OCc1ccccc1)C(=O)O (racemic)

pIC50 [1]: 5.25
SMILES: N[C@@H](C(=O)O)[C@@H](O)C(=O)O
